Measurements as given in patent US11891601B2, “Method to enhance the transcription regulation of SUPT4H on genes containing repetitive nucleotide sequences” (National Yang-Ming University, priority 2018, dated 2024).

Test system: R-loops on (CAG)n-eGFP in ST14A cells
Test: RNA/DNA immunoprecipitation (DIP) assay of R-loops in ST14A cells expressing Q7-GFP or Q81-GFP
Format: cell-based, rat
Settings: ST14A tet cells, tropolone 60 μM for 12 hours
Method: Yeast cells were collected after culturing in 2% galactose-containing medium for 12 hours, and then grinded by glass beads in the presence of 300 μl extraction buffer (10 mM Tris-HCl pH 8.0, 10 mM EDTA, 200 mM NaCl, 1% SDS, 2% Triton X-100, 25 units RNase inhibitor). The nucleic acid mixture was subjected to sonication (Bioruptor UCD-200) and extracted by phenol (pH 8.0). Purified chromatin DNA and RNA, with or without RNase H treatment for 90 minutes, was precipitated by monoclonal antibody S9.6 bound to protein G agarose beads. […] The RNA/DNA hybrid (R-loop) signal was analyzed by qPCR and the Quantitative-Comparative CT (MCT) program. In yeast experiments, a pair of primers (Primer-B F and Primer-B R) were used to quantify R-loop signal in the vicinity of CAG repeats and the primer set AMP was used as a control. […] For Hdh^Q7/Q7 and Hdh^Q111/Q111, mouse HTT DIP primer set was used to quantify R-loop signal of the CAG repeating region and Tubal a DIP primer set was included as a control. […]
Please refer to FIG. 6. […] A relative high signal of R-loops was detected in (CAG)7-eGFP, but this signal is not increased by tropolone. […] RNA was extracted and analyzed by real-time RT-qPCR to measure the quantity of (CAG)n-GFP, SUPT4H and snRNA U6. […]

O=c1cccccc1O [Tropolone]
R-loop signal by DIP assay, (CAG)8i-eGFP (long repeat): significantly increased
R-loop signal by DIP assay, (CAG)7-eGFP (short repeat (CAG)7-eGFP): not increased
